Assay results: patent publication US12171230B2, “Herbicidal compositions” (Bayer Aktiengesellschaft, priority 2018, dated 2024)
Values joined by “and” are separate entries in the source; they are usually repeats but may differ in a detail not shown here. Identical values can stand only once.

Experiments:
Assay type in all cases: in vivo
[1] = test system: Lolium rigidum (resistant biotype); assay: Post-emergence herbicidal action against Lolium rigidum (resistant biotype)
Method in brief: (§1)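 Colby-derived expected values (E^C) and the summed effects of the separate applications (E^A) accompany each rating. Active substance was dosed in grams per hectare on a 100% active-compound basis, with the rating period given as DAT.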

Phalaris minor = assay: Post-emergence herbicidal action against Phalaris minor
Method in brief: as §1

Galium aparine = assay: Post-emergence herbicidal action against Galium aparine
Method in brief: (§2)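 Seeds or rhizome pieces were grown in sandy loam in pots in a greenhouse, and plants were sprayed at the three-leaf stage, three weeks after sowing. Spray powders or emulsion concentrates were applied in various dosages at 300 to 800 l/ha water. Efficacy was scored visually after 3 to 4 weeks against untreated controls.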

Digitaria horizontalis = assay: Post-emergence herbicidal action against Digitaria horizontalis
Description: The following abbreviations are used in the description and the tables that follow: • g of a.i./ha=grams of active substance (active ingredient) (=100% active compound) per hectare; • The sum total of the effects of the individual applications is reported under E^A; • expected values according to Colby are each reported under E^C.
The rating period is reported in days after application (DAT).

Digitaria sanguinalis = assay: Post-emergence herbicidal action against Digitaria sanguinalis
Method in brief: as §2

Abutilon theophrasti = assay: Post-emergence herbicidal action against Abutilon theophrasti
Method in brief: as §1

Poa annua = assay: Post-emergence herbicidal action against Poa annua
Method in brief: as §2

With `C=C[C@]1(C(=O)N[C@H]2CO[C@@H](C(=O)OC)C2)CC(c2cc(F)cc(F)c2)=NO1` (relative stereo) [Compound A3, methyl rel-(2R,4R)-4-[[(5S)-3-(3,5-difluorophenyl)-5-vinyl-4H-isoxazole-5-carbonyl]amino]tetrahydrofuran-2-carboxylate] as the molecule, how does the “Herbicidal action 14 DAT against Lolium rigidum (resistant biotype)” value ([1]; 1 g of a.i./ha) read?
Its value is 15% and 30%.

And the “Herbicidal action 28 DAT against Lolium rigidum (resistant biotype)” value (“Herbicidal action 28 DAT … (resistant biotype)” for short) ([1]; 1 g of a.i./ha)?
The value was 0%.

And the “Herbicidal action 14 DAT against Lolium rigidum (resistant biotype)” value ([1]; 4 g of a.i./ha)?
The value was 40% and 60%.

And the “Herbicidal action in [%] 14 DAT against Lolium rigidum (resistant biotype)” value ([1]; 1 g of a.i./ha)?
Its value is 30%.

And the “Herbicidal action in [%] 14 DAT against Lolium rigidum (resistant biotype)” value ([1]; 4 g of a.i./ha)?
The value was 60%.

What about the “Herbicidal action 28 DAT … (resistant biotype)” value ([1]; 16 g of a.i./ha) of the same molecule?
Its value is 80%.

What about the “Herbicidal action in [%] 28 DAT against Lolium rigidum (resistant biotype)” value ([1]; 1 g of a.i./ha) of the same molecule?
Its value is 0%.

What about the “Herbicidal action in [%] 28 DAT against Lolium rigidum (resistant biotype)” value ([1]; 4 g of a.i./ha) of the same molecule?
The value was 40%.

What about the “Herbicidal action in [%] 28 DAT against Lolium rigidum (resistant biotype)” value ([1]; 16 g of a.i./ha) of the same molecule?
Its value is 80%.

What about the “Herbicidal action 28 DAT … (resistant biotype)” value ([1]; (Z61) post-emergence, g of a.i./ha: 4, 1, 270, 90, 4 + 270, 1 + 90, 1 g of a.i./ha) of the same molecule?
Its value is 0%.

And the “Herbicidal action 28 DAT … (resistant biotype)” value ([1]; (Z61) post-emergence, g of a.i./ha: 4, 1, 270, 90, 4 + 270, 1 + 90, 4 g of a.i./ha)?
Its value is 10%.

What about the “Herbicidal action 14 DAT against Phalaris minor” value (Phalaris minor; 1 g of a.i./ha) of the same molecule?
Its value is 10%.

What about the “Herbicidal action 28 DAT against Phalaris minor” value (Phalaris minor; 1 g of a.i./ha) of the same molecule?
Its value is 0% and 10%.

And the “Herbicidal action 28 DAT against Phalaris minor” value (Phalaris minor; 4 g of a.i./ha)?
The value was 70%.

What about the “Herbicidal action in [%] 14 DAT against Phalaris minor” value (Phalaris minor; 1 g of a.i./ha) of the same molecule?
Its value is 20%.

And the “Herbicidal action in [%] 14 DAT against Phalaris minor” value (Phalaris minor; 4 g of a.i./ha)?
Its value is 85%.

What about the “Herbicidal action in [%] 14 DAT against Phalaris minor” value (Phalaris minor; 16 g of a.i./ha) of the same molecule?
The value was 85%.

What about the “Herbicidal action 28 DAT against Phalaris minor” value (Phalaris minor; 16 g of a.i./ha) of the same molecule?
Its value is 40%.

And the “Herbicidal action in [%] 28 DAT against Phalaris minor” value (Phalaris minor; 1 g of a.i./ha)?
The value was 10%.

What about the “Herbicidal action in [%] 28 DAT against Phalaris minor” value (Phalaris minor; 16 g of a.i./ha) of the same molecule?
Its value is 85%.

What about the “Herbicidal action 14 DAT against Galium aparine” value (Galium aparine; 1 g of a.i./ha) of the same molecule?
The value was 40%.

And the “Herbicidal action 28 DAT against Galium aparine” value (Galium aparine; 1 g of a.i./ha)?
The value was 15%.

What about the “Herbicidal action in [%] 14 DAT against Galium aparine” value (Galium aparine; 1 g of a.i./ha) of the same molecule?
Its value is 40%.

What about the “Herbicidal action in [%] 28 DAT against Galium aparine” value (Galium aparine; 1 g of a.i./ha) of the same molecule?
The value was 15%.

And the “Herbicidal action in [%] 28 DAT against Galium aparine” value (Galium aparine; 4 g of a.i./ha)?
The value was 65%.

And the “Herbicidal action in [%] 28 DAT against Galium aparine” value (Galium aparine; 4 g of a.i./ha, post-emergence)?
Its value is 70%.

What about the “Herbicidal action against Galium aparine” value (Galium aparine; 14 DAT, 1 g of a.i./ha) of the same molecule?
The value was 40%.

And the “Herbicidal action 28 DAT against Galium aparine” value (Galium aparine; 16 g of a.i./ha)?
The value was 75%.

And the “Herbicidal action in [%] 28 DAT against Galium aparine” value (Galium aparine; 16 g of a.i./ha)?
Its value is 75%.

And the “Herbicidal action in [%] 28 DAT against Galium aparine” value (Galium aparine; 16 g of a.i./ha, post-emergence)?
The value was 80%.

And the “Herbicidal action against Galium aparine” value (Galium aparine; 28 DAT, 1 g of a.i./ha)?
Its value is 15%.

And the “Herbicidal action 14 DAT against Galium aparine” value (Galium aparine; (Z61) post-emergence, g of a.i./ha: 1, 270, 90, 30, 1 + 270, 1 + 90, 1 + 30)?
The value was 40%.

What about the “Herbicidal action 28 DAT against Digitaria horizontalis” value (Digitaria horizontalis; (Z61) post-emergence, g of a.i./ha: 200, 100, 100 + 200) of the same molecule?
The value was 96%.

What about the “Herbicidal action 28 DAT against Digitaria horizontalis” value (Digitaria horizontalis; A3/Asulam, first sub-table, post-emergence, g of a.i./ha by row: 720, 100, 100 + 720) of the same molecule?
The value was 96%.

What about the “Herbicidal action 28 DAT against Digitaria horizontalis” value (Digitaria horizontalis; A3/Asulam, second sub-table, post-emergence, g of a.i./ha by row: 720, 100, 100 + 720) of the same molecule?
The value was 87%.

What about the “Herbicidal action 21 DAT [%] against Digitaria sanguinalis” value (Digitaria sanguinalis; 1.7 g of a.i./ha) of the same molecule?
Its value is 20% and 10%.

What about the “Herbicidal action 21 DAT against Digitaria sanguinalis” value (Digitaria sanguinalis; 1.7 g of a.i./ha) of the same molecule?
The value was 10%.

And the “Herbicidal action 21 DAT [%] against Digitaria sanguinalis” value (Digitaria sanguinalis; 1.7 g of a.i./ha, post-emergence)?
The value was 10%.

What about the “Herbicidal action 21 DAT [%] against Digitaria sanguinalis” value (Digitaria sanguinalis; 5 g of a.i./ha) of the same molecule?
The value was 80%.

What about the “Herbicidal action 21 DAT against Digitaria sanguinalis” value (Digitaria sanguinalis; 5 g of a.i./ha) of the same molecule?
Its value is 80%.

And the Herbicidal action (Digitaria sanguinalis; 21 DAT, 1.7 g a.i./ha)?
Its Herbicidal action is 10%.

And the “Herbicidal action 37 DAT against Digitaria sanguinalis” value (Digitaria sanguinalis; (Z61) post-emergence, g of a.i./ha: 180, 100, 100 + 180)?
The value was 94%.

What about the “Herbicidal action 21 DAT [%] against Abutilon theophrasti” value (Abutilon theophrasti; 1.7 g of a.i./ha) of the same molecule?
The value was 10%.

What about the “Herbicidal action 21 DAT against Abutilon theophrasti” value (Abutilon theophrasti; 1.7 g of a.i./ha) of the same molecule?
The value was 0%.

What about the “Herbicidal action 21 DAT against Abutilon theophrasti” value (Abutilon theophrasti; 5 g of a.i./ha) of the same molecule?
The value was 30%.

And the “Herbicidal action 21 DAT [%] against Abutilon theophrasti” value (Abutilon theophrasti; 15 g of a.i./ha)?
Its value is 35%.

And the “Herbicidal action 28 DAT against Poa annua L.” value (Poa annua; 1 g of a.i./ha)?
Its value is 15%.

And the “Herbicidal action in [%] 14 DAT against Poa annua L.” value (Poa annua; 1 g of a.i./ha)?
The value was 40% and 50%.

What about the “Herbicidal action in [%] 28 DAT against Poa annua L.” value (Poa annua; 1 g of a.i./ha) of the same molecule?
Its value is 15% and 20%.

And the “Herbicidal action in [%] 28 DAT against Poa annua” value (Poa annua; 1 g of a.i./ha, post-emergence)?
Its value is 30%.

And the “Herbicidal action in [%] 14 DAT against Poa annua L.” value (Poa annua; 4 g of a.i./ha)?
The value was 85%.

And the “Herbicidal action in [%] 28 DAT against Poa annua L.” value (Poa annua; 4 g of a.i./ha)?
Its value is 80%.

And the Herbicidal action (Poa annua; 14 DAT, 1 g a.i./ha)?
Its Herbicidal action is 50%.

And the “Herbicidal action against Poa annua L.” value (Poa annua; 14 DAT, 1 g of a.i./ha)?
Its value is 40%.

And the Herbicidal action (Poa annua; 14 DAT, 4 g a.i./ha)?
Its Herbicidal action is 85%.

And the “Herbicidal action against Poa annua L.” value (Poa annua; 14 DAT, 16 g of a.i./ha)?
The value was 85%.

And the “Herbicidal action 28 DAT against Poa annua L.” value (Poa annua; 16 g of a.i./ha)?
The value was 40%.

And the “Herbicidal action in [%] 14 DAT against Poa annua L.” value (Poa annua; 16 g of a.i./ha)?
The value was 85%.

What about the Herbicidal action (Poa annua; 28 DAT, 1 g a.i./ha) of the same molecule?
The Herbicidal action was 20%.

What about the “Herbicidal action against Poa annua L.” value (Poa annua; 28 DAT, 1 g of a.i./ha) of the same molecule?
Its value is 15%.

And the Herbicidal action (Poa annua; 28 DAT, 4 g a.i./ha)?
Its Herbicidal action is 80%.

What about the Herbicidal action (Poa annua; 28 DAT, 16 g a.i./ha) of the same molecule?
Its Herbicidal action is 85%.

What about the “Herbicidal action against Poa annua L.” value (Poa annua; 28 DAT, 16 g of a.i./ha) of the same molecule?
The value was 40%.

And the Herbicidal action (Poa annua; 28 DAT, 50 g a.i./ha)?
The Herbicidal action was 0%.

What about the “Herbicidal action in [%] 14 DAT against Poa annua L.” value (Poa annua; post-emergence, 14 DAT, 1 g of a.i./ha) of the same molecule?
The value was 50%.

What about the “Herbicidal action in [%] 14 DAT against Poa annua L.” value (Poa annua; post-emergence, 14 DAT, 4 g of a.i./ha) of the same molecule?
The value was 85%.

What about the “Herbicidal action in [%] 14 DAT against Poa annua L.” value (Poa annua; post-emergence, 14 DAT, 16 g of a.i./ha) of the same molecule?
The value was 93%.
